Assay results from patent US12552753B2, “Methods and compositions for targeting Tregs using CCR8 inhibitors” (Nanjing Immunophage Biomedical Co., Ltd., priority 2020, dated 2026).
Counter-ions that a name gives are not always drawn.

The compounds below were run against CCR8 (Homo sapiens, UniProt P51685) (assay: Tango assay (Tango-CCR8-Gal4-CHO-K1 cells, CCL1-stimulated, ONE-Glo luminescence)). Details: Tango Assay IC50, Inhibition of CCR8 Tango cell in vitro.
Sequence of CCR8 (P51685 whole entry, the tested form may be a part): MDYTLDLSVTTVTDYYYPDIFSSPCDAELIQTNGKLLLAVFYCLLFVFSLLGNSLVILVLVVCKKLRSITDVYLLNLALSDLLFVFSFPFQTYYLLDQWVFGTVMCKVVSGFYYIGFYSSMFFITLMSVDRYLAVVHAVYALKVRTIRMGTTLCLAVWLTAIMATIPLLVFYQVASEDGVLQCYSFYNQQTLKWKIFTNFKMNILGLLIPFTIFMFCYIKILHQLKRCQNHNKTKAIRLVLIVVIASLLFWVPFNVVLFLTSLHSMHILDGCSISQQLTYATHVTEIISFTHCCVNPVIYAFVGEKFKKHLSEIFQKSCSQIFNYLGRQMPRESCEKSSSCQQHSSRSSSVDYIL
With `Cc1cc(S(=O)(=O)N[C@H](C)C2CCNCC2)ccc1NC(=O)C1CCC1` [Compound 254, (R)-N-(2-methyl-4-(N-(1-(piperidin-4-yl)ethyl)sulfamoyl)phenyl) cyclobutanecarboxamide] the IC50 was > 100000 nM. Work on `Cc1cc(S(=O)(=O)NC(C)C2CCNCC2)ccc1NC(=O)c1ccccc1Cl` (centres unmarked) [Compound 255, 2-chloro-N-(2-methyl-4-(N-(1-(piperidin-4-yl)ethyl)sulfamoyl)phenyl)benzamide] yielded an IC50 of 30 nM. `Cc1cc(S(=O)(=O)N[C@H](C)C2CCNCC2)ccc1NC(=O)c1ccc(Cl)cc1C` [Compound 256A, (R)-4-chloro-2-methyl-N-(2-methyl-4-(N-(1-(piperidin-4-yl)ethyl)sulfamoyl)phenyl)benzamide hydrochloride] showed an IC50 of 2 nM. `Cc1ccccc1C(=O)Nc1cc(C)c(S(=O)(=O)N[C@H](C)C2CCNCC2)cc1F` [Compound 257, (R)-N-(2-fluoro-5-methyl-4-(N-(1-(piperidin-4-yl)ethyl)sulfamoyl)phenyl)-2-methylbenzamide hydrochloride] showed an IC50 of 15 nM. In the case of `Cc1cc(S(=O)(=O)N[C@H](C)C2CCNCC2)ccc1NC(=O)c1ccc(F)cc1C` [Compound 258A, (R)-4-fluoro-2-methyl-N-(2-methyl-4-(N-(1-(piperidin-4-yl)ethyl)sulfamoyl)phenyl)benzamide hydrochloride], the IC50 is reported as > 100000 nM. Work on `Cc1ccc(C(=O)Nc2ccc(S(=O)(=O)N[C@H](C)C3CCNCC3)cc2C)c(C)c1` [Compound 259A, (R)-2,4-dimethyl-N-(2-methyl-4-(N-(1-(piperidin-4-yl)ethyl)sulfamoyl)phenyl)benzamide hydrochloride] yielded an IC50 of 3 nM. In the case of `Cc1cc(S(=O)(=O)N[C@H](C)C2CCN(C)CC2)c(F)cc1NC(=O)c1ccccc1C` [Compound 262, (R)-N-(5-fluoro-2-methyl-4-(N-(1-(1-methylpiperidin-4-yl)ethyl)sulfamoyl)phenyl)-2-methylbenzamide], the IC50 is reported as 5 nM. For `Cc1cc(S(=O)(=O)N[C@@H](C)C2CCN(C)CC2)c(F)cc1NC(=O)c1ccccc1C` [Compound 262A, (S)-N-(5-fluoro-2-methyl-4-(N-(1-(1-methylpiperidin-4-yl)ethyl)sulfamoyl)phenyl)-2-methylbenzamide], the IC50 was > 100000 nM. `Cc1ccccc1C(=O)Nc1cc(F)c(S(=O)(=O)N[C@H](C)C2CCN(C)CC2)cc1Cl` [Compound 263, (R)-N-(2-chloro-5-fluoro-4-(N-(1-(1-methylpiperidin-4-yl)ethyl)sulfamoyl)phenyl)-2-methylbenzamide] was tested, and the IC50 was 2 nM. With `Cc1ccccc1C(=O)Nc1cc(F)c(S(=O)(=O)N[C@@H](C)C2CCN(C)CC2)cc1Cl` [Compound 263A, (S)-N-(2-chloro-5-fluoro-4-(N-(1-(1-methylpiperidin-4-yl)ethyl)sulfamoyl)phenyl)-2-methylbenzamide hydrochloride] the IC50 was 282 nM. `Cc1ccccc1C(=O)Nc1cc(F)c(S(=O)(=O)NC(C)C2CCN(C)CC2)cc1Cl` (centres unmarked) [Compound 263C, N-(2-chloro-5-fluoro-4-(N-(1-(1-methylpiperidin-4-yl)ethyl)sulfamoyl)phenyl)-2-methylbenzamide] was tested, and the IC50 was 15 nM. `Cc1ccccc1C(=O)Nc1ccc(S(=O)(=O)N[C@H](C)C2CCN(C)CC2)c(F)c1Cl` [Compound 264, (R)-N-(2-chloro-3-fluoro-4-(N-(1-(1-methylpiperidin-4-yl)ethyl)sulfamoyl)phenyl)-2-methylbenzamide] gave an IC50 of 11 nM. For `COc1ccc(C(=O)Nc2ccc(S(=O)(=O)N[C@H](C)C3CCN(C)CC3)cc2C)c(C)c1` [Compound 266, (R)-4-methoxy-2-methyl-N-(2-methyl-4-(N-(1-(1-methylpiperidin-4-yl)ethyl)sulfamoyl)phenyl) benzamide], the IC50 was 3 nM. Work on `Cc1ccccc1C(=O)Nc1cc(C)c(S(=O)(=O)N[C@H](C)C2CCN(C)CC2)cc1Cl` [Compound 267A, (R)-N-(2-chloro-5-methyl-4-(N-(1-(1-methylpiperidin-4-yl)ethyl)sulfamoyl)phenyl)-2-methylbenzamide hydrochloride] yielded an IC50 of 2 nM. `Cc1cc(S(=O)(=O)N[C@H](C)C2CCN(C)CC2)ccc1NC(=O)c1c(C)cccc1F` [Compound 270, (R)-2-fluoro-6-methyl-N-(2-methyl-4-(N-(1-(1-methylpiperidin-4-yl)ethyl)sulfamoyl)phenyl) benzamide] gave an IC50 of 50 nM. With `Cc1cc(S(=O)(=O)N[C@H](C)C2CCN(C)CC2)ccc1NC(=O)c1cc(Cl)ccc1C` [Compound 272, (R)-5-chloro-2-methyl-N-(2-methyl-4-(N-(1-(1-methylpiperidin-4-yl)ethyl)sulfamoyl)phenyl) benzamide] the IC50 was 1 nM. `Cc1cc(S(=O)(=O)N[C@H](C)C2CCN(C)CC2)ccc1NC(=O)c1ccc(Cl)cc1C` [Compound 273A, (R)-4-chloro-2-methyl-N-(2-methyl-4-(N-(1-(1-methylpiperidin-4-yl)ethyl)sulfamoyl)phenyl) benzamide hydrochloride] showed an IC50 of 1 nM. With `Cc1cc(S(=O)(=O)N[C@H](C)C2CCN(C)CC2)ccc1NC(=O)C1CCCCCC1` [Compound 274, (R)-N-(2-methyl-4-(N-(1-(1-methylpiperidin-4-yl)ethyl)sulfamoyl)phenyl) cycloheptane-carboxamide] the IC50 was 13 nM. `Cc1ccccc1C(=O)Nc1ccc(S(=O)(=O)N[C@H](C)C2CCN(C)CC2)c(Cl)c1Cl` [Compound 275, (R)-N-(2,3-dichloro-4-(N-(1-(1-methylpiperidin-4-yl)ethyl)sulfamoyl)phenyl)-2-methylbenzamide] was tested, and the IC50 was 46 nM. `Cc1cc(S(=O)(=O)N[C@H](C)C2CCN(C)CC2)ccc1NC(=O)c1ccc(F)cc1C` [Compound 276, (R)-4-fluoro-2-methyl-N-(2-methyl-4-(N-(1-(1-methylpiperidin-4-yl)ethyl)sulfamoyl)phenyl) benzamide hydrochloride] gave an IC50 of 10 nM. `Cc1ccc(C(=O)Nc2ccc(S(=O)(=O)N[C@H](C)C3CCN(C)CC3)cc2C)c(C)c1` [Compound 277, (R)-2,4-dimethyl-N-(2-methyl-4-(N-(1-(1-methylpiperidin-4-yl)ethyl)sulfamoyl)phenyl) benzamide] showed an IC50 of 2 nM. `Cc1ccccc1C(=O)Nc1ccc(S(=O)(=O)N[C@H](C)C2CCN(C)CC2)c(F)c1C` [Compound 278, (R)-N-(3-fluoro-2-methyl-4-(N-(1-(1-methylpiperidin-4-yl)ethyl)sulfamoyl)phenyl)-2-methylbenzamide hydrochloride] gave an IC50 of 6 nM. For `CCN1CCCN(C(c2cccc(NS(=O)(=O)c3ccc4ccccc4c3)c2)C(F)(F)F)CC1` (centres unmarked) [Compound 279, N-(3-(1-(4-ethyl-1,4-diazepan-1-yl)-2,2,2-trifluoroethyl)phenyl)naphthalene-2-sulfonamide], the IC50 was > 100000 nM. For `CN(C)CCN1CCOc2cc(NS(=O)(=O)c3ccc4ccccc4c3)ccc2C1=O` [Compound 280, N-(4-(2-(dimethylamino)ethyl)-5-oxo-2,3,4,5-tetrahydrobenzo[f][1,4]oxazepin-8-yl)naphthalene-2-sulfonamide], the IC50 was > 100000 nM. In the case of `Cc1ccccc1C(=O)Nc1ccc(S(=O)(=O)NCc2ccccc2)c2ccccc12` [Compound 281, N-(4-(N-benzylsulfamoyl)naphthalen-1-yl)-2-methylbenzamide], the IC50 is reported as > 100000 nM. `Cc1ccccc1C(=O)Nc1ccc(S(=O)(=O)NC(C)(C)c2ccccc2)c2ccccc12` [Compound 283, 2-methyl-N-(4-(N-(2-phenylpropan-2-yl)sulfamoyl)naphthalen-1-yl)benzamide] was tested, and the IC50 was > 100000 nM. With `CC(NS(=O)(=O)c1ccc2[nH]c(=O)ccc2c1)C1CC2CCC1CC2` (centres unmarked) [Compound 284, N-(1-(bicyclo[2.2.2]octan-2-yl)ethyl)-2-oxo-1,2-dihydroquinoline-6-sulfonamide] the IC50 was > 100000 nM. For `Cc1cc(S(=O)(=O)N[C@H](C)C2CCN(C(=O)OC(C)(C)C)CC2)c(C)cc1NC(=O)c1ccccc1C` [Compound 285, tert-butyl (R)-4-(1-((2,5-dimethyl-4-(2-methylbenzamido)phenyl)sulfonamido)ethyl)piperidine-1-carboxylate], the IC50 was > 100000 nM. `Cc1cc(S(=O)(=O)NC(C)(C)C2CCN(C)CC2)ccc1NC(=O)c1ccccc1C` [Compound 291, 2-methyl-N-(2-methyl-4-(N-(2-(1-methylpiperidin-4-yl)propan-2-yl)sulfamoyl)phenyl) benzamide] gave an IC50 of 245 nM. For `Cc1cc(S(=O)(=O)NC(C)C(C)(C)CN(C)C)ccc1NC(=O)c1ccccc1C` (centres unmarked) [Compound 294, N-(4-(N-(4-(dimethylamino)-3,3-dimethylbutan-2-yl)sulfamoyl)-2-methylphenyl)-2-methylbenzamide hydrochlroide, hydrochloride], the IC50 was > 100000 nM. For `Cc1cc(S(=O)(=O)N[C@H](C)C2CCN(C)CC2)ccc1NC(=O)C12CCC(CC1)CC2` [Compound 295, (R)-N-(2-methyl-4-(N-(1-(1-methylpiperidin-4-yl)ethyl)sulfamoyl)phenyl)bicyclo [2.2.2]oct-ane-1-carboxamide], the IC50 was 4.6 nM. In the case of `Cc1cc(S(=O)(=O)N[C@H](C)C2CCN(C)CC2)ccc1NC(=O)c1cccc2c1CCC2` [Compound 296, (R)-N-(2-methyl-4-(N-(1-(1-methylpiperidin-4-yl)ethyl)sulfamoyl)phenyl)-2,3-dihydro-1H-indene-4-carboxamide], the IC50 is reported as 2 nM. `COc1cc(NC(=O)c2ccccc2C)c(C)cc1S(=O)(=O)N[C@H](C)C1CCN(C)CC1` [Compound 298, (R)-N-(5-methoxy-2-methyl-4-(N-(1-(1-methylpiperidin-4-yl)ethyl)sulfamoyl)phenyl)-2-methylbenzamide] showed an IC50 of 17 nM. In the case of `Cc1cc(S(=O)(=O)N[C@H](C)C2CCN(C)CC2)ccc1NC1(c2ccccc2)COC1` [Compound 299, (R)-3-methyl-N-(1-(1-methylpiperidin-4-yl)ethyl)-4-((3-phenyloxetan-3-yl)amino) benzene-sulfonamide], the IC50 is reported as > 100000 nM. For `Cc1cc(S(=O)(=O)N[C@H](C)C2CCN(C)CC2)ccc1NC(c1ccccc1)C(F)(F)F` (stereo partly drawn) [Compound 300, 3-methyl-N-((R)-1-(1-methylpiperidin-4-yl)ethyl)-4-((2,2,2-trifluoro-1-phenylethyl)amino)benzene-sulfonamide], the IC50 was 2300 nM.
